Results on 1 molecule are retold here after BindingDB's records for doi:10.1021/acs.jmedchem.6b01918 (Bristol Myers Squibb, 2017).

The test is described as follows: Inhibition of Nav1.7 in C57BL/6 […] embryonic DRG cells assessed as blockade of spontaneous neuronal firing by Maestro microelectrode array analysis.

For orientation: IC50 means the concentration that gives 50% inhibition. For `N[C@H]1CC[C@@H](CNc2cc(F)c(S(=O)(=O)Nc3nccs3)cc2Cl)CC1`, the IC50 is 1.2 nM.
